According to patent publication US20030130799A1, “Structure/properties correlation with membrane affinity profile” (priority 2001, published 2003):
Read-outs that look alike come from different tables or passages of the source.

Columns and labels:
[1] = IAM chromatography membrane affinity (κ′) on esterIAM.PE C10/C3 column; conditions: for LOG PE (log κ′ on esterIAM.PE C10/C3): 15% acetonitrile in 0.01M PBS buffer (pH 7.4) mobile phase
[2] = Prediction of clearance from IAM membrane affinity standard curve; parameters: species or system human; conditions: Table 4; predicted using IAM k′ data
[3] = cited from earlier work; for Vd Observed: Table 2, 70-kg patient assumed; for Volume of Distribution (Ref.) category in brackets: class of the reference value
plasma proteins [4] = conditions: cited from earlier work; for Protein Binding Observed: Table 3
[5] = IAM chromatography membrane affinity (κ′) on esterIAM.PS C10/C3 column; conditions: for Log PS (log κ′ on esterIAM.PS C10/C3): 15% acetonitrile in 0.01M PBS buffer (pH 7.4) mobile phase
[6] = cited from earlier work; for Clearance (Ref.): Table 5, Study 1, category; for total body clearance Observed: Table 4
plasma proteins [7] = experiment: Prediction of protein binding from IAM membrane affinity standard curve; parameters: species or system human; conditions: Table 3; predicted using IAM k′ data (FIG. 20)
[8] = Prediction of volume of distribution from IAM membrane affinity standard curve; conditions: Table 2; predicted using IAM k′ data (FIG. 19)
[9] = known ADME properties of the parent compound
[10] = column volumes of mobile phase needed to elute

Nc1nc2c(ncn2COCCO)c(=O)[nH]1 [Acyclovir]
LOG PE (log κ′ on esterIAM.PE C10/C3) [1]: −1.17

Nc1nnc(-c2cccc(Cl)c2Cl)c(N)n1 [Lamotrigine]
total body clearance Predicted [2]: LOW < 0.327 (LOW < 0.327) | Vd Observed [3]: 91 L | Protein Binding Observed (plasma proteins [4]): 55 | Log PS (log κ′ on esterIAM.PS C10/C3) [5]: 0.96

O=C(NCC1CCCCN1)c1cc(OCC(F)(F)F)ccc1OCC(F)(F)F (stereo not shown) [flucainide]
Volume of Distribution (L) (Ref.) ([3]; Table 6, Study 2): 343 L | % Protein Binding (Ref.) (plasma proteins [4]; Table 6, Study 2): 61%

O=C1CN=C(c2ccccc2Cl)c2cc([N+](=O)[O-])ccc2N1 [clonazepam]
Volume of Distribution (L) (Ref.) ([3]; Table 5, Study 1): 210 L | Vd [3, 9]: 224 L | % Protein Binding (Ref.) (plasma proteins [4]; Table 5, Study 1): 86% | Protein binding (plasma proteins [4]; [9]): 86% | Clearance (Ref.) [6]: low | CL [6, 9]: 0.109 L/min

CC(C)NCC(O)COc1cccc2ccccc12 (stereo not shown) [propranolol]
Volume of Distribution (L) (Ref.) ([3]; Table 6, Study 2): 301 L

Fc1ccc([C@@H]2CCNC[C@H]2COc2ccc3c(c2)OCO3)cc1 [Paroxetine]
Protein Binding Predicted (plasma proteins [7]): Greater than 90 | total body clearance Predicted [2]: HIGH > 0.327 (HIGH > 0.327) | Vd Observed [3]: 1190 L | Protein Binding Observed (plasma proteins [4]): 95 | total body clearance Observed [6]: 0.602 | Log PS (log κ′ on esterIAM.PS C10/C3) [5]: 3.37 | LOG PE (log κ′ on esterIAM.PE C10/C3) [1]: 2.33

O=C1Nc2ccc(Cl)cc2C(c2ccccc2Cl)=NC1O (stereo not shown) [lorazepam]
Volume of Distribution (L) (Ref.) ([3]; Table 5, Study 1): 91 L | Volume of Distribution (Ref.) category in brackets ([3]; Table 5, Study 1): (high) (“high” (70-250 L)) | Clearance (Ref.) [6]: low

CCCN(CCC)CCc1cccc2c1CC(=O)N2 [Ropinirole]
Protein Binding Predicted (plasma proteins [7]): 40-90 | total body clearance Predicted [2]: HIGH > 0.327 (HIGH > 0.327) | Vd Observed [3]: 525 L | Protein Binding Observed (plasma proteins [4]): 68 | Vd Predicted [8]: VERY HIGH (>250 L) (VERY HIGH (>250 L))

O=C1CN=C(c2ccccc2)c2cc([N+](=O)[O-])ccc2N1 [nitrazepam]
Volume of Distribution (L) (Ref.) ([3]; Table 5, Study 1): 133 L | Volume of Distribution (Ref.) category in brackets ([3]; Table 5, Study 1): (high) (“high” (70-250 L)) | Clearance (Ref.) [6]: low

CN1C(=O)CN=C(c2ccccc2F)c2cc([N+](=O)[O-])ccc21 [flunitrazepam]
% Protein Binding (Ref.) (plasma proteins [4]; Table 5, Study 1): 77%

CNCCC(Oc1ccc(C(F)(F)F)cc1)c1ccccc1 (stereo not shown) [fluoxetine]
Volume of Distribution (L) (Ref.) ([3]; Table 6, Study 2): 2450 L | % Protein Binding (Ref.) (plasma proteins [4]; Table 6, Study 2): 94%

Cc1cccc(C)c1OCC(C)N (stereo not shown) [mexiletine]
Volume of Distribution (L) (Ref.) ([3]; Table 6, Study 2): 343 L | % Protein Binding (Ref.) (plasma proteins [4]; Table 6, Study 2): 63%

CC(CCc1ccccc1)NCC(O)c1ccc(O)c(C(N)=O)c1 (stereo not shown) [labetalol]
% Protein Binding (Ref.) (plasma proteins [4]; Table 6, Study 2): 50%

CNC(=C[N+](=O)[O-])NCCSCc1ccc(CN(C)C)o1 [Ranitidine]
Vd Observed [3]: 91 L | Protein Binding Observed (plasma proteins [4]): 15 | Log PS (log κ′ on esterIAM.PS C10/C3) [5]: 0.83 | LOG PE (log κ′ on esterIAM.PE C10/C3) [1]: 0.15

CC(C)(C)NCC(O)COc1cccc2c1CC(O)C(O)C2 (stereo not shown) [nadolol]
Volume of Distribution (L) (Ref.) ([3]; Table 6, Study 2): 133 L | % Protein Binding (Ref.) (plasma proteins [4]; Table 6, Study 2): 20%

CCCC(=O)Nc1ccc(OCC(O)CNC(C)C)c(C(C)=O)c1 (stereo not shown) [acebutolol]
Volume of Distribution (L) (Ref.) ([3]; Table 6, Study 2): 84 L

COCCc1ccc(OCC(O)CNC(C)C)cc1 (stereo not shown) [metoprolol]
Volume of Distribution (L) (Ref.) ([3]; Table 6, Study 2): 294 L

COc1cc(Cc2cnc(N)nc2N)cc(OC)c1OC [trimethoprim]
κ′ on the esterIAM.PS C10/C3 column [5, 10]: 10 | affinity for the esterIAM.PS C10/C3 column compared to the esterIAM.PE column ([5]; ratio of κ′ PS / κ′ PE): ~5 times | κ′ on the esterIAM.PE C10/C3 column [1, 10]: 2

CCCCC1C(=O)N(c2ccccc2)N(c2ccccc2)C1=O [phenylbutazone]
Volume of Distribution (L) (Ref.) ([3]; Table 6, Study 2): 7 L

COc1ccc([C@@H]2Sc3ccccc3N(CCN(C)C)C(=O)[C@@H]2OC(C)=O)cc1 [Diltiazem]
total body clearance Predicted [2]: HIGH > 0.327 (HIGH > 0.327) | Vd Observed [3]: 217 L | Protein Binding Observed (plasma proteins [4]): 78 | total body clearance Observed [6]: 0.84 | Log PS (log κ′ on esterIAM.PS C10/C3) [5]: 2.54 | LOG PE (log κ′ on esterIAM.PE C10/C3) [1]: 1.87

CC(C)(C)NCC(O)c1cc(O)cc(O)c1 (stereo not shown) [terbutaline]
Volume of Distribution (L) (Ref.) ([3]; Table 6, Study 2): 126 L | % Protein Binding (Ref.) (plasma proteins [4]; Table 6, Study 2): 20%
